Test system: Smpd3 expression
Test: Smpd3 expression by RT-qPCR in B16K1 melanoma cells incubated with 5-aza or TSA
Format: cell-based, murine
Description: A, B16K1 cells expressing (2+) or not (2−) V5-tagged nSMase 2 were analyzed by Western blot using anti-V5 and anti-β-actin antibodies. B, Neutral SMase activity in B16K1 nSMase 2+ (2+) and nSMase 2− (2−) as well as in mock-transfected B16K1 cells. C, Intracellular ceramide levels in B16K1 nSMase 2+(2+) and nSMase 2− (2−) as well as in mock-tranfected B16K1 cells. Data are expressed as the % of values obtained with mock-transfected B16K1 cells. Values are shown as means±sem of 3 independent experiments (B and C). D, In vitro B16K1 cell growth was evaluated in 10% FCS medium (left panel) or 0% FCS medium ([…]). […] Cells were analysed by Western blot using anti-V5 and anti-β-actin antibodies. […] Data are shown as means±sem of 3 independent experiments. (*: p<0.05; **: p<0.01). G, B16K1 melanoma cells were incubated or not with 1 μM of 5 aza-2 deoxycitidine (5-aza) during 72 hours or with 0.1 μM Trichostatine A (TSA) during the last 16 hours. Smpd3 expression was analysed by RT-qPCR. Data are shown as means±sem of 3 independent experiments.
RNA isolation and qRT-PCR. RNA isolation from cells and exosomes was performed by using the Qiagen RNeasy mini kit and Qiagen miRNeasy kit respectively, according to manufacturer's instructions. […]

| SMILES | Smpd3 expression (1 μM 5-aza during 72 hours) | Smpd3 expression (0.1 μM TSA during the last 16 hours) |
| --- | --- | --- |
| Nc1ncn([C@@H]2O[C@H](CO)[C@@H](O)[C@H]2O)c(=O)n1 [5-Azacytidine] | not |  |
| CC(/C=C/C(=O)NO)=C\[C@@H](C)C(=O)c1ccc(N(C)C)cc1 [trichostatin A] |  | greatly enhanced |
